Here are results for one molecule from patent US20110046142A1, “ANTIBIOTIC COMPOUNDS” (priority 2007, published 2011).

Converted amounts (≈) assume the structure as drawn. Read-outs that look alike come from different tables or passages of the source.

For test [1], the system named is E. coli K12 ΔtolC overexpressing activating enzyme. The test is described as follows: MIC, standard broth microdilution assay, tolC deletion (MDR efflux). The class given is cell-based. The text has this: Prodrugs are activated by activating enzymes into reactive molecules that bind to their targets, creating an irreversible sink. This may lead to insensitivity of the overall process to MDR efflux. In order to test this possibility, an E. coli K12 with a deletion in tolC coding for the outer membrane porin that is a component of the transenvelope MDRs was utilized (Li (2004) Drugs 64:159-204). This strain is highly sensitive to antibiotics (Tegos et al. (2002) Antimicrob. Agents Chemother. 46:3133-3141). […] The substrate specificity of AcrAB is remarkably broad, and includes essentially all small molecular weight amphipathic compounds. The AcrAB substrates include anions (SDS, fatty acids, bile acids), neutral compounds (macrolides, chloramphenicol, tetracyclines) and cations or compounds that can form cations (acridine, quaternary compound antiseptics, fluoroquinolones). AcrAB can extrude a natural broad spectrum antibiotics that evolved for good penetration, chloramphenicol and tetracycline; and also extrude synthetic broad-spectrums, the fluoroquinolones.
(§1) Cells were tested in a standard broth microdilution assay, inoculating 10^5 cells per well of a microtiter plate in LB broth. Overexpression and deletion strains were compared to the appropriate isogenic wild type. IPTG was added at 1 mM to growth medium. Experiments involving nfnB and nfsA strains were performed under anaerobic conditions.
For orientation: Dilution methods test growth across graded concentrations, often in twofold steps.

For test [2], the system named is E. coli K12 overexpressing activating enzyme. The test is described as follows: MIC, standard broth microdilution assay, overexpression strains. It is filed as cell-based. The protocol: (§2) The ASKA strains of interest are validated for functional expression of the enzyme. If the protein is not expressed from a given expression vector the ORF is recloned. A strain overexpressing the activating enzyme from the ASKA library is then tested with the hit compound. If the hit has greater activity against this overexpressing strain as compared to the wild type, this indicates a prodrug. The test is performed in a standard broth microdilution assay for MIC determination. Hits with the lowest wild type MIC are then examined.
as §1

The subject of test [3] is wild type bacterial strain (E. coli), stationary state. The test is described as follows: Dose-dependent killing of stationary state cells, plating and colony count. It is filed as cell-based. As to conditions: anaerobic, 6 hours incubation, biphasic killing. The protocol:
FIG. 10 is a graphical representation of the dose-dependent killing of E. coli by metronidazole. Stationary phase cells grown in LB medium in the presence of 1 mM IPTG under anaerobic conditions were challenged for 6 hrs with increasing concentrations of metronidazole and then plated on LB agar plates.
The killing ability of metronidazole was examined. The wild type bacterial strain was grown to stationary state under anaerobic conditions, and dose-dependent killing after incubation with metronidazole for 6 hours was detected by plating and colony count (FIG. 10). […] This is the first observation of a sterilizing activity of an antibiotic against a stationary state bacterial population. Previously, it was only possible to kill persisters and sterilize an infection with peracetic acid (FIG. 2); (Spoering et al. (2001) J. Bacteriol. 183:6746-6751).

For test [4], the system named is E. coli K12 Δactivating enzyme. Put plainly: MIC, standard broth microdilution assay, deletion strains. The class given is cell-based. As to conditions: Escherichia coli, anaerobic conditions. The procedure:
as §2, §1

In test [5] the test system is strain overexpressing the activating enzyme, NfnB or NfsA. The test is described as follows: Dose-dependent killing of stationary state cells, plating and colony count. It is filed as cell-based, E. coli. The conditions noted are these: for sterilization of the population: nfnB^+ strain, limit of detection 6 logs of killing, <10 cells/ml.
The next test concerns E. coli K12 wt. The test is described as follows: MIC, standard broth microdilution assay. It is filed as cell-based. As to conditions: LB broth, 10^5 cells per well, 1 mM IPTG. The procedure:
as §2, §1

For `Cc1ncc([N+](=O)[O-])n1CCO` [Metronidazole], the MIC in test [1] (Escherichia coli) was 8.8 µg/mL (≈ 51.4 µM); in test [1] (ΔtolC, nfsA^+ overexpressing strain) it was “nfsA^+ 8.8 μg/ml”; in test [2] (Escherichia coli), 8.8 µg/mL (≈ 51.4 µM); in test [2] (nfnB^+ overexpressing strain, 1 mM IPTG, anaerobic conditions), “nfnB^+ 8.8 μg/ml”; in test [2] (nfsA^+ overexpressing strain, 1 mM IPTG, anaerobic conditions) it was “nfsA^+ 8.8 μg/ml”; in test [2] (nfsA^+ overexpressing strain, 1 mM IPTG, anaerobic conditions, listed as metronidazole) it was 8.8 µg/mL (≈ 51.4 µM). Besides, the MIC in test [4] (nfnB^− deletion strain) was 1120 µg/mL (≈ 6570 µM); in test [4] (nfsA^− deletion strain), 2250 µg/mL (≈ 13100 µM); in the test with E. coli K12 wt (Escherichia coli, K12WT, read-out: MIC), over 500 µg/mL; with E. coli K12 wt, 563 µg/mL (≈ 3290 µM). In addition, the “sensitivity of the overexpression strain as compared to the wild type control” value in test [2] (E. coli overexpressing NfnB) is listed as “greater than 50 fold”. The tolerant persister cells entry in test [3] is listed as “about 1%”. The “sterilization of the population” value is “completely “sterilized”” in test [5] and “complete sterilization” in test [5] (listed as metronidazole). Besides, the surviving persisters entry in test [5] (strain overexpressing NfnB or NfsA, stationary state, 6 hours) is reported as “no surviving persisters were detected”.

As usually defined, the MIC is the least concentration at which growth counts as inhibited.
